Test results from patent publication US20090299049A1, “Bicyclic Compounds and Their Use” (priority 2006, published 2009).

Key:
[1] = Optical properties: UV-visible spectra, fluorescence excitation and emission; assay type: physicochemical; details: for Stokes shift: (1/λex − 1 λem); for λem: fluorescence emission wavelength; for λex: fluorescence excitation wavelength
Source text: The optical properties of several novel chromophores were investigated. UV-visible spectra reveal an intense absorption in the UV region for all the compounds evaluated.

[2] = UV absorbance and fluorescence of ribonucleoside analogues in DMSO (molar extinction coefficient, quantum yield); assay type: physicochemical; details: for Quantum yield: relative to quinine sulphate and anthracene standards
Source text: UV absorbance and fluorescence excitation and emission data were used to determine the molar extinction coefficient and fluorescence quantum yield of a several adenosine and guanosine ribonucleoside analogues in DMSO (see the Table below). The data acquired support the concept that the fluorescence properties of these analogues can be tuned by altering the electron-donating or electron-withdrawing R-group on the terminal phenylalkyne. Fourteen electron-donating or electron-withdrawing R-groups were coupled to purine bases at the 8-position. […] This makes the analogues extremely useful for the quantification of analogue-containing nucleic acid products in a DNA or RNA background. […] The position (ortho, meta or para) of the R-group on the phenyl ring can also be used to tune the fluorescent properties of the analogues. The ring position of the R-group has a smaller effect on the fluorescent properties of the analogues. Greater changes in the excitation/emission wavelength, molar extinction coefficient and quantum yield can be induced by changing the type of R-group (electron-donating vs. electron-withdrawing) as compared to the position of a R-group on the phenyl ring (ortho, meta or para). The quantum yields of the unphosphorylated analogues were measured relative to quinine sulphate and anthracene standards. […] This provides additional support for the idea that the purine bases can both push and pull electrons in π-conjugated systems.

Compound | Stokes shift [1] [cm⁻¹] | λem [1] [nm] | λex [1] [nm] | melting point | Wavelength at fluorescence emission maximum [2] [nm] | Wavelength at maximum in UV absorption [2] [nm] | Quantum yield [2] [%] | Molar absorption coefficient [2] [M⁻¹ cm⁻¹] | UV-visible spectrum shift relative to compound 5a (parent) [1] | HOMO-LUMO gap relative to compound 5a ([1]; inferred from UV-visible spectrum) | Absorption maxima shift relative to compound 7a (parent) ([1]; compared with the guanosine series)
Nc1nc2c(nc(C#Cc3ccc(C(F)(F)F)cc3)n2[C@@H]2O[C@H](CO)[C@@H](O)[C@H]2O)c(=O)[nH]1 [Compound 5g, 8-(4′-Trifluoromethylphenylethynyl)guanosine] | 4539 | 468 | 386 | > 240 °C | 458 | 348 | 0.74 | – | – | – | –
Nc1nc2c(nc(C#Cc3ccccc3C(F)(F)F)n2[C@@H]2O[C@H](CO)[C@@H](O)[C@H]2O)c(=O)[nH]1 [Guanosine —CF3 ortho] | – | – | – | – | 421 | 347 | 1.1 | – | – | – | –
Nc1ncnc2c1nc(C#Cc1ccc(Cl)cc1)n2[C@@H]1O[C@H](CO)[C@@H](O)[C@H]1O [Adenosine —Cl para] | – | – | – | – | 410 | 326 | 46 | 23927 | – | – | –
Nc1nc2c(nc(C#Cc3ccc(F)cc3)n2[C@@H]2O[C@H](CO)[C@@H](O)[C@H]2O)c(=O)[nH]1 [Guanosine —F para] | – | – | – | – | 416 | 333 | 2.4 | 11304 | – | – | –
Nc1ncnc2c1nc(C#Cc1cccc(C(F)(F)F)c1)n2[C@@H]1O[C@H](CO)[C@@H](O)[C@H]1O [Adenosine —CF3 meta] | – | – | – | – | 421 | 326 | 21 | 19547 | – | – | –
Nc1nc2c(nc(C#Cc3ccc(Cl)cc3)n2[C@@H]2O[C@H](CO)[C@@H](O)[C@H]2O)c(=O)[nH]1 [Guanosine —Cl para] | – | – | – | – | 431 | 338 | 1.9 | 23317 | – | – | –
COc1cccc(C#Cc2nc3c(N)ncnc3n2[C@@H]2O[C@H](CO)[C@@H](O)[C@H]2O)c1 [Adenosine —OCH3 meta] | – | – | – | – | 400 | 324 | 52 | 19589 | – | – | –
Cc1ccc(C#Cc2nc3c(N)ncnc3n2[C@@H]2O[C@H](CO)[C@@H](O)[C@H]2O)cc1 [Compound 6b, 8-(4′-Methylphenylethynyl)adenosine] | 3126 | 393 | 350 | 196 to 198 °C (dec.) | 393 | 323 | 54 | 18772 | – | – | –
CC(=O)c1ccc(C#Cc2nc3c(N)ncnc3n2[C@@H]2O[C@H](CO)[C@@H](O)[C@H]2O)cc1 [Compound 6f, 8-(4′-Acetophenonephenylethynyl)adenosine] | 6454 | 493 | 374 | – | 493 | 343 | 4.9 | 19639 | – | – | –
Nc1ncnc2c1nc(C#Cc1ccc(C(F)(F)F)cc1)n2[C@@H]1O[C@H](CO)[C@@H](O)[C@H]1O [Compound 6g, 8-(4′-Trifluoromethylphenylethynyl)adenosine] | 4897 | 440 | 362 | 196 to 198 °C (dec.) | 436 | 333 | 8.8 | – | – | – | –
CCN(CC)c1ccc(C#Cc2nc3c(=O)[nH]c(N)nc3n2[C@@H]2O[C@H](CO)[C@@H](O)[C@H]2O)cc1 [Compound 5e, 8-(4-N,N-diethylaminephenylethynyl)guanosine] | 5205 | 502 | 398 | – | 409 | 356 | 2.1 | – | red-shifted | higher HOMO-LUMO gap | –
COc1cccc(C#Cc2nc3c(=O)[nH]c(N)nc3n2[C@@H]2O[C@H](CO)[C@@H](O)[C@H]2O)c1 [Guanosine —OCH3 meta] | – | – | – | – | 420 | 334 | 3.6 | 20261 | – | – | –
COc1ccccc1C#Cc1nc2c(N)ncnc2n1[C@@H]1O[C@H](CO)[C@@H](O)[C@H]1O [Adenosine —OCH3 ortho] | – | – | – | – | 429 | 333 | 21 | – | – | – | –
CSc1ccc(C#Cc2nc3c(N)ncnc3n2[C@@H]2O[C@H](CO)[C@@H](O)[C@H]2O)cc1 [Compound 6d, 8-(4-Methylsulfanylphenylethynyl)adenosine] | 1921 | 396 | 368 | 184 to 188 °C (dec.) | – | 338 | 67 | 26019 | – | – | –
Nc1nc2c(nc(C#Cc3cccc4ccccc34)n2[C@@H]2O[C@H](CO)[C@@H](O)[C@H]2O)c(=O)[nH]1 [Compound 5h, 8-(Napthylethynyl)guanosine] | 4604 | 465 | 383 | – | 467 | 357 | 5.4 | 15141 | – | – | –
CSc1ccc(C#Cc2nc3c(=O)[nH]c(N)nc3n2[C@@H]2O[C@H](CO)[C@@H](O)[C@H]2O)cc1 [Compound 5d, 8-(4-Methylsulfanylphenylethynyl)guanosine] | 3264 | 426 | 374 | 214 to 216 °C (dec.) | 425 | 343 | 4.5 | 19832 | – | – | –
CC(=O)c1ccc(C#Cc2nc3c(=O)[nH]c(N)nc3n2[C@@H]2O[C@H](CO)[C@@H](O)[C@H]2O)cc1 [Compound 5f, 8-(4′-Acetophenonephenylethynyl)guanosine] | 6392 | 532 | 397 | – | 509 | 364 | 0.44 | 19589 | – | – | –
8-(1′-Ethynylferrocene)guanosine [Compound 5i] | 3537 | 439 | 380 | – | – | – | – | – | – | – | –
Cc1ccc(C#Cc2nc3c(=O)[nH]c(N)nc3n2[C@@H]2O[C@H](CO)[C@@H](O)[C@H]2O)cc1 [Compound 5b, 8-(4′-Methylphenylethynyl)guanosine] | 3452 | 415 | 363 | 222 to 226 °C (dec.) | 409 | 331 | 3.1 | 16591 | – | – | –
Nc1ncnc2c1nc(C#Cc1ccccc1)n2[C@@H]1O[C@H](CO)[C@@H](O)[C@H]1O [Compound 6a, 8-(Phenylethynyl)adenosine] | 3383 | 397 | 350 | 168 to 170 °C (dec.) | 398 | 322 | 49 | – | – | – | –
Nc1ncnc2c1nc(C#Cc1ccc(F)cc1)n2[C@@H]1O[C@H](CO)[C@@H](O)[C@H]1O [Adenosine —F para] | – | – | – | – | 396 | 320 | 40 | 5558 | – | – | –
8-(1′-Ethynylferrocene)adenosine [Compound 6i] | 3986 | 434 | 370 | – | – | – | – | – | – | – | –
Nc1ncnc2c1nc(C#Cc1cccc3ccccc13)n2[C@@H]1O[C@H](CO)[C@@H](O)[C@H]1O [Compound 6h, 8-(Napthylethynyl)adenosine] | 3394 | 431 | 376 | – | 430 | 349 | 49 | 22970 | – | – | –
CCN(CC)c1ccc(C#Cc2nc3c(N)ncnc3n2[C@@H]2O[C@H](CO)[C@@H](O)[C@H]2O)cc1 [Compound 6e, 8-(4-N,N-Diethylaminephenylethynyl)adenosine] | 4747 | 506 | 408 | – | 441 | 365 | 8.4 | – | – | – | more significant differences
